# Measured values reported in patent publication US20230255943A1, “MMP-9 AND MMP-12 INHIBITION FOR TREATING SPINAL CORD INJURY OR RELATED INJURY TO NEUROLOGICAL TISSUE” (The University of Birmingham, priority 2020, published 2023).
# Columns and labels:
# [1] = system: IL-1β, TNF-α and IL-6; assay: Proinflammatory pain markers after CC SCI in mice; type: in vivo, mouse; conditions: oral gavage immediately after injury
# Protocol: (§1) CC SCI was administered at the T7-T8 vertebral level after exposure of T6-T9 by laminectomy. The aneurysm clip applicator was oriented in a bilateral direction and an aneurysm clip with a closing force of 24 g was applied extradurally for 60 s, as described previously (A. S. Rivlin, C. H. Tator, Effect of duration of acute spinal cord compression in a new acute cord injury model in the rat. Surg Neurol 10, 38-43 (1978):E. Esposito, I. Paterniti, E. Mazzon, T. Genovese, M. Galuppo, R. Meli, P. Bramanti, S. Cuzzocrea, MK801 attenuates secondary injury in a mouse experimental compression model of spinal cord trauma. BMC Neurosci 12, 31 (2011)).
# (§2) The urinary bladders were manually emptied twice daily until bladder function was regained. Adult male C57BL6 mice (25-30 g) (Charles River, Margate, UK) were randomly allocated to either: (1), Sham (control; laminectomy but no CC SCI); (2), CC SCI+vehicle; (3), CC SCI+200 mg/kg AZD1236 (oral); (4), CC SCI+5 mg/kg AZD1236 (it). All experiments were performed with n=6 mice/group and repeated on 3 independent occasions (total=18 mice/group/test).
# The lesion site+5 mm either side (DC and CC SCI, n=6 mice/rats/group, 2 independent repeats (total n=12 mice/rats/group)) was dissected and rapidly frozen in liquid N2 and stored at −80° C. until required. […] The levels of mRNA of MMP-9, MMP-12, IL-1β, TNF-α and IL-6 were determined using pre-validated mouse primer sequences from complimentary DNA prepared from extracted mRNA and qRT-PCR was performed using a LightCycler PCR machine (Roche, Burgess Hill, UK) (M. L. Read, S. Mir, R. Spice, R. J. Seabright, E. L. Suggate, Z. Ahmed, M. Berry, A. Logan, Profiling RNA interference (RNAi)-mediated toxicity in neural cultures for effective short interfering RNA design. J Gene Med 11, 523-534 (2009)). […] Fold changes were computed using the ΔΔCt method (M. L. Read, S. Mir, R. Spice, R. J. Seabright, E. L. Suggate, Z. Ahmed, M. Berry, A. Logan, Profiling RNA interference (RNAi)-mediated toxicity in neural cultures for effective short interfering RNA design. J Gene Med 11, 523-534 (2009).
# [2] = system: mice with CC SCI; assay: Assessment of neuropathic pain (mechanical, thermal, cold allodynia) in CC model; type: in vivo, mouse
# Protocol: as §1, §2
# Mechanical allodynia was measured in mice using a series of von Frey filaments (0.25 g-15 g) applied to the plantar surface of the hind-paw by an experimenter masked to the treatment conditions and withdrawal of the paw was recorded as a positive response (F. Nasirinezhad, S. Gajavelli, B. Priddy, S. Jergova, J. Zadina, J. Sagen, Viral vectors encoding endomorphins and serine histogranin attenuate neuropathic pain symptoms after spinal cord injury in rats. Mol Pain 11, 2 (2015)).
# The hair with the lowest force required to elicit a paw withdrawal response was recorded. […]
# Thermal hyperalgesia was tested using established methods of plantar heat sensitivity tests described previously (S. Surey, M. Berry, A. Logan, R. Bicknell, Z. Ahmed, Differential cavitation, angiogenesis and wound-healing responses in injured mouse and rat spinal cords. Neuroscience 275, 62-80 (2014)). […] The reaction time of paw withdrawal was recorded for five separate tests for each hind limb with a 30-s interval before re-testing on the same paw. […]
# Cold allodynia was measured by an experimenter masked to the treatment conditions as the number of foot withdrawal responses after application of an acetone drop to the plantar surface of the paw (F. Nasirinezhad, S. Gajavelli, B. Priddy, S. Jergova, J. Zadina, J. Sagen, Viral vectors encoding endomorphins and serine histogranin attenuate neuropathic pain symptoms after spinal cord injury in rats. Mol Pain 11, 2 (2015)). Testing was repeated five times with an interval of 5 min between each test and the response frequency to acetone was expressed as a percent response frequency ([number of paw withdrawals/number of trials]×100).
smiles,measurement,setting,value
C[C@]1(CS(=O)(=O)N2CC=C(C#Cc3cnc(C4CC4)nc3)CC2)NC(=O)NC1=O [AZD1236],"proinflammatory pain markers after CC injury, comparison with pain medications (FIG. 7)",[1],significantly attenuates
same,"cold allodynia, improvement",[2]; oral delivery,> 80 % of sham-treated controls
same,"mechanical allodynia, improvement",[2]; oral delivery,> 80 % of sham-treated controls
same,"thermal allodynia, improvement",[2]; oral delivery,> 80 % of sham-treated controls
same,"improvements in mechanical, thermal and cold allodynia vs pregabalin and gabapentin","[2]; pregabalin 30 mg/kg, gabapentin 100 mg/kg",significantly better
